What was measured:
Test in all cases: normalised viability (% of control), CellTiter-Blue; higher = more viable cells (about 100 = DMSO control)
Conditions in all cases: incubation time: 72 h
DU-4475 [1] = tested on: DU-4475
Method: (§1)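 DSRT, CellTiter-Blue viability, 72 h incubation. Signal is normalised to DMSO and benzethonium chloride controls. Value is the normalised response at dose 3.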

CAL-120 [2] = tested on: CAL-120
Method: as §1

HCC1937 = tested on: HCC1937
Method: as §1

MDA-MB-231 [3] = tested on: MDA-MB-231
Method: as §1

MFM-223 = tested on: MFM-223
Method: as §1

Hs578T [4] = tested on: Hs578T
Method: as §1

BT-549 [5] = tested on: BT-549
Method: as §1

CAL-148 [6] = tested on: CAL-148
Method: as §1

MDA-MB-436 = tested on: MDA-MB-436
Method: as §1

MDA-MB-453 = tested on: MDA-MB-453
Method: as §1

HDQ-P1 = tested on: HDQ-P1
Method: as §1

HCC1143 [7] = tested on: HCC1143
Method: as §1

HCC1599 = tested on: HCC1599
Method: as §1

MDA-MB-468 [8] = tested on: MDA-MB-468
Method: as §1

CAL-51 = tested on: CAL-51
Method: as §1

BT-474 [9] = tested on: BT-474
Method: as §1

SK-BR-3 [10] = tested on: SK-BR-3
Method: as §1

CAL-85-1 [11] = tested on: CAL-85-1
Method: as §1

DU-4475 [12] = tested on: DU-4475; remark: listed apart in the source
In short: (§2)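 After 72 h on compound-loaded 384-well plates, breast cancer cell lines received 2.5 µl CellTiter-Blue reagent for 2 h at 37 °C. Fluorescence at 560/590 nm was scaled per plate so that vehicle was 100 and a positive kill control was 0. The value stands for normalised viability at a single listed concentration of the series.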

CAL-120 [13] = tested on: CAL-120; remark: listed apart in the source
In short: as §2

MDA-MB-231 [14] = tested on: MDA-MB-231; remark: listed apart in the source
In short: as §2

Hs578T [15] = tested on: Hs578T; remark: listed apart in the source
In short: as §2

BT-549 [16] = tested on: BT-549; remark: listed apart in the source
In short: as §2

CAL-148 [17] = tested on: CAL-148; remark: listed apart in the source
In short: as §2

HCC1143 [18] = tested on: HCC1143; remark: listed apart in the source
In short: as §2

MDA-MB-468 [19] = tested on: MDA-MB-468; remark: listed apart in the source
In short: as §2

BT-474 [20] = tested on: BT-474; remark: listed apart in the source
In short: as §2

SK-BR-3 [21] = tested on: SK-BR-3; remark: listed apart in the source
In short: as §2

CAL-85-1 [22] = tested on: CAL-85-1; remark: listed apart in the source
In short: as §2

COc1c2occc2cc2ccc(=O)oc12 [Methoxsalen]
Conditions	normalised viability [%]
BT-474 [9], 100 nM	115
BT-474 [20], 10 nM	123
BT-474 [20], 1000 nM	102
BT-474 [20], 10000 nM	117
BT-549 [5], 100 nM	109
BT-549 [16], 10 nM	90.9
BT-549 [16], 1000 nM	104
BT-549 [16], 10000 nM	82.9
CAL-51, 10 nM	105
CAL-85-1 [11], 10 nM	100
CAL-85-1 [22], 3 nM	92.9
CAL-85-1 [22], 30 nM	92.6
CAL-85-1 [22], 100 nM	92.5
CAL-120 [2], 100 nM	106
CAL-120 [13], 10 nM	99.1
CAL-120 [13], 1000 nM	101
CAL-120 [13], 10000 nM	104
CAL-148 [6], 10 nM	99.5
CAL-148 [17], 3 nM	98.7
CAL-148 [17], 30 nM	95.8
CAL-148 [17], 100 nM	100
DU-4475 [1], 10 nM	95.5
DU-4475 [12], 3 nM	95.6
DU-4475 [12], 30 nM	111
DU-4475 [12], 100 nM	111
HCC1143 [7], 100 nM	106
HCC1143 [18], 10 nM	91.8
HCC1143 [18], 1000 nM	99.1
HCC1143 [18], 10000 nM	94.2
HCC1599, 100 nM	104
HCC1937, 100 nM	104
HDQ-P1, 10 nM	99.3
Hs578T [4], 100 nM	102
Hs578T [15], 10 nM	55.3
Hs578T [15], 1000 nM	138
Hs578T [15], 10000 nM	110
MDA-MB-231 [3], 100 nM	100
MDA-MB-231 [14], 10 nM	102
MDA-MB-231 [14], 1000 nM	99.1
MDA-MB-231 [14], 10000 nM	112
MDA-MB-436, 100 nM	103
MDA-MB-453, 10 nM	95.2
MDA-MB-468 [8], 100 nM	104
MDA-MB-468 [19], 10 nM	107
MDA-MB-468 [19], 1000 nM	112
MDA-MB-468 [19], 10000 nM	105
MFM-223, 100 nM	92.9
SK-BR-3 [10], 100 nM	98.6
SK-BR-3 [21], 10 nM	104
SK-BR-3 [21], 1000 nM	127
SK-BR-3 [21], 10000 nM	104

CO[C@@H]1[C@H](N(C)C(=O)c2ccccc2)C[C@H]2O[C@]1(C)n1c3ccccc3c3c4c(c5c6ccccc6n2c5c31)C(=O)NC4 [Midostaurin]
Conditions	normalised viability [%]
BT-474 [9], 100 nM	114
BT-474 [20], 10 nM	105
BT-474 [20], 1000 nM	91.3
BT-474 [20], 10000 nM	84.3
BT-549 [5], 100 nM	88.1
BT-549 [16], 10 nM	80.4
BT-549 [16], 1000 nM	59.5
BT-549 [16], 10000 nM	18.7
CAL-51, 10 nM	91.9
CAL-85-1 [11], 10 nM	103
CAL-85-1 [22], 3 nM	112
CAL-85-1 [22], 30 nM	111
CAL-85-1 [22], 100 nM	103
CAL-120 [2], 100 nM	107
CAL-120 [13], 10 nM	126
CAL-120 [13], 1000 nM	55.4
CAL-120 [13], 10000 nM	44.9
CAL-148 [6], 10 nM	107
CAL-148 [17], 3 nM	115
CAL-148 [17], 30 nM	105
CAL-148 [17], 100 nM	129
DU-4475 [1], 10 nM	103
DU-4475 [12], 3 nM	94.7
DU-4475 [12], 30 nM	92.4
DU-4475 [12], 100 nM	101
HCC1143 [7], 100 nM	134
HCC1143 [18], 10 nM	145
HCC1143 [18], 1000 nM	75
HCC1143 [18], 10000 nM	61.3
HCC1599, 100 nM	101
HCC1937, 100 nM	82.8
HDQ-P1, 10 nM	85.3
Hs578T [4], 100 nM	82.2
Hs578T [15], 10 nM	129
Hs578T [15], 1000 nM	31
Hs578T [15], 10000 nM	15.6
MDA-MB-231 [3], 100 nM	103
MDA-MB-231 [14], 10 nM	92.8
MDA-MB-231 [14], 1000 nM	49.1
MDA-MB-231 [14], 10000 nM	42.4
MDA-MB-436, 100 nM	85.6
MDA-MB-453, 10 nM	85.7
MDA-MB-468 [8], 100 nM	112
MDA-MB-468 [19], 10 nM	98.5
MDA-MB-468 [19], 1000 nM	46.6
MDA-MB-468 [19], 10000 nM	41.4
MFM-223, 100 nM	108
SK-BR-3 [10], 100 nM	102
SK-BR-3 [21], 10 nM	94
SK-BR-3 [21], 1000 nM	77.4
SK-BR-3 [21], 10000 nM	39.5

CO[C@@]12[C@H](COC(N)=O)C3=C(C(=O)C(C)=C(N)C3=O)N1C[C@@H]1N[C@@H]12 [Mitomycin C]
Conditions	normalised viability [%]
BT-474 [9], 100 nM	127
BT-474 [20], 10 nM	112
BT-474 [20], 1000 nM	95.5
BT-474 [20], 10000 nM	53.7
BT-549 [5], 100 nM	74.4
BT-549 [16], 10 nM	85
BT-549 [16], 1000 nM	84.9
BT-549 [16], 10000 nM	14.1
CAL-51, 10 nM	108
CAL-85-1 [11], 10 nM	104
CAL-85-1 [22], 3 nM	104
CAL-85-1 [22], 30 nM	98.4
CAL-85-1 [22], 100 nM	105
CAL-120 [2], 100 nM	93.8
CAL-120 [13], 10 nM	92.4
CAL-120 [13], 1000 nM	91.5
CAL-120 [13], 10000 nM	40.4
CAL-148 [6], 10 nM	101
CAL-148 [17], 3 nM	97.3
CAL-148 [17], 30 nM	102
CAL-148 [17], 100 nM	100
DU-4475 [1], 10 nM	103
DU-4475 [12], 3 nM	105
DU-4475 [12], 30 nM	83.6
DU-4475 [12], 100 nM	91
HCC1143 [7], 100 nM	83.7
HCC1143 [18], 10 nM	78.3
HCC1143 [18], 1000 nM	72.4
HCC1143 [18], 10000 nM	20.4
HCC1599, 100 nM	108
HCC1937, 100 nM	69.2
HDQ-P1, 10 nM	103
Hs578T [4], 100 nM	97.1
Hs578T [15], 10 nM	113
Hs578T [15], 1000 nM	98.9
Hs578T [15], 10000 nM	5.32
MDA-MB-231 [3], 100 nM	107
MDA-MB-231 [14], 10 nM	108
MDA-MB-231 [14], 1000 nM	76.1
MDA-MB-231 [14], 10000 nM	47.3
MDA-MB-436, 100 nM	96.5
MDA-MB-453, 10 nM	87.6
MDA-MB-468 [8], 100 nM	92
MDA-MB-468 [19], 10 nM	95.3
MDA-MB-468 [19], 1000 nM	78.5
MDA-MB-468 [19], 10000 nM	8.5
MFM-223, 100 nM	89.1
SK-BR-3 [10], 100 nM	91.9
SK-BR-3 [21], 10 nM	99.2
SK-BR-3 [21], 1000 nM	61.5
SK-BR-3 [21], 10000 nM	10.4

CCNC(=O)c1noc(-c2cc(C(C)C)c(O)cc2O)c1-c1ccc(CN2CCOCC2)cc1 [NVP-AUY922]
Conditions	normalised viability [%]
BT-474 [9], 10 nM	86.1
BT-474 [20], 1 nM	102
BT-474 [20], 100 nM	27.7
BT-474 [20], 1000 nM	22.3
BT-549 [5], 10 nM	42.2
BT-549 [16], 1 nM	113
BT-549 [16], 100 nM	29.3
BT-549 [16], 1000 nM	31.7
CAL-51, 1 nM	102
CAL-85-1 [11], 1 nM	96
CAL-85-1 [22], 0.3 nM	101
CAL-85-1 [22], 3 nM	96.8
CAL-85-1 [22], 10 nM	102
CAL-120 [2], 10 nM	46.6
CAL-120 [13], 1 nM	101
CAL-120 [13], 100 nM	18.9
CAL-120 [13], 1000 nM	17.1
CAL-148 [6], 1 nM	103
CAL-148 [17], 0.3 nM	98.7
CAL-148 [17], 3 nM	108
CAL-148 [17], 10 nM	112
DU-4475 [1], 1 nM	115
DU-4475 [12], 0.3 nM	114
DU-4475 [12], 3 nM	109
DU-4475 [12], 10 nM	87.6
HCC1143 [7], 10 nM	100
HCC1143 [18], 1 nM	119
HCC1143 [18], 100 nM	45
HCC1143 [18], 1000 nM	47.7
HCC1599, 10 nM	112
HCC1937, 10 nM	37.8
HDQ-P1, 1 nM	132
Hs578T [4], 10 nM	37.3
Hs578T [15], 1 nM	110
Hs578T [15], 100 nM	44.1
Hs578T [15], 1000 nM	37.2
MDA-MB-231 [3], 10 nM	56.5
MDA-MB-231 [14], 1 nM	140
MDA-MB-231 [14], 100 nM	39.1
MDA-MB-231 [14], 1000 nM	31
MDA-MB-436, 10 nM	58.5
MDA-MB-453, 1 nM	119
MDA-MB-468 [8], 10 nM	51.6
MDA-MB-468 [19], 1 nM	106
MDA-MB-468 [19], 100 nM	27.3
MDA-MB-468 [19], 1000 nM	23.3
MFM-223, 10 nM	41.1
SK-BR-3 [10], 10 nM	34.9
SK-BR-3 [21], 1 nM	106
SK-BR-3 [21], 100 nM	16.2
SK-BR-3 [21], 1000 nM	16.8

From the supplement of paper PMC4862054
